{
  "source": "patent US20140023653A1",
  "about": "“BOLDINE DERIVATIVES FOR PROMOTING BONE GROWTH” (OSTEOGENEX, INC., priority 2012, published 2014)",
  "biological_target": "T1, Sclerostin (Homo sapiens, UniProt Q9BQB4)",
  "T1 construct": "host or cells: human embryonic cells (reporter cells)",
  "T1 sequence (Q9BQB4 24-213)": "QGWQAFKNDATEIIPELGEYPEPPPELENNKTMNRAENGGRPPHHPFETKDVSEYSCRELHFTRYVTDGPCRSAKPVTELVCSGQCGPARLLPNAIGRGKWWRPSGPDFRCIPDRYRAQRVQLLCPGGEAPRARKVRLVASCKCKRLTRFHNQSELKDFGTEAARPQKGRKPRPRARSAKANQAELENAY",
  "experiment": "Luciferase Wnt pathway activity assay: inhibition of sclerostin by restoration of Wnt signaling in human cells",
  "assay_type": "cell-based",
  "experimental": "The Y axis represents Relative Light Units (RLU) which represents Wnt pathway signaling. Addition of Wnt (W) activates the Wnt pathway, while addition of Sclerostin (S) inhibits the Wnt pathway. […] Compound concentrations are indicated in μM.\nBriefly, cells (e.g., human cells) are treated with a predetermined dose of a candidate compound for a complete dosing schedule.\nConcentrations are indicated along the X axis in micromolar values.",
  "data": [
    {"smiles": "COc1cc2c(cc1O)C[C@H]1c3c(cc(O)c(OC)c3-2)CCN1C", "note": "[Compound 1, (S)-1,10-dimethoxy-6-methyl-5,6,6a,7-tetrahydro-4H-dibenzo[de,g]quinoline-2,9-diol]", "values": [
      {"measurement": "IC50", "result": 5, "unit": "µM"}
    ]}
  ]
}
